# According to patent US20260335329A1, “PROTEIN PHOSPHATASE AGONIST AND USE” (priority 2022, published 2026):
# Values joined by “and” are separate entries in the source; they are usually repeats but may differ in a detail not shown here. Equal values may be shown once.
# Columns and labels:
# PP2A [1] = experiment: PP2A protein expression level in PC12 cells treated with Aβ (Western Blot); format: cell-based; conditions: then Aβ 40 μmol/L; for PP2A (Western Blot signal) / PP2A protein expression level, β-actin(%): 2 h, 24 h
# Description: PC12 cells were cultured adherently. 0.1 μmol/L compound 2, 0.5 μmol/L compound 2, 1 μmol/L compound 2, 5 μmol/L compound 2, and 10 μmol/L compound 2 were added respectively. Then, the cells were incubated for 2 h. 40 μmol/L Aβ was then added. Then, the cells were incubated for 24 h. Total protein was extracted. PP2A activity was detected by the Western Blot assay.
# PP2A [2] = experiment: Okadaic acid-induced PP2A protein expression level in PC12 cells (Western Blot); format: cell-based; conditions: for PP2A (Western Blot signal) / PP2A(%): 2 h, then okadaic acid 40 nmol/L, 24 h
# Description: PC12 cells were inoculated into a T25 culture flask. After the cells were attached to the wall, compound 1 and compound 2 were added, and then the cells were incubated for 2 h. 40 nmol/L okadaic acid was then added. Then, the cells were incubated for 24 h. The protein was extracted. Based on the Western Blot assay, the PP2A protein expression level in PC12 cells was detected through SDS-PAGE and transfer, immunoblotting, color development, and G: BOX chemiXR5 imaging.
# [3] = system: p-tauSer396 in SH-SY5Y cells; experiment: Okadaic acid-induced phosphorylation of tau protein (p-tauSer396) in SH-SY5Y cells (Western Blot); format: cell-based, human; conditions: for p-tauSer396 level (%): 24 h, then okadaic acid 40 nmol/L, SEM
# Description: SH-SY5Y cells were cultured in vitro for 24 h in culture media containing different concentrations of compound 2. Then, the cells were treated with 40 nmol/L okadaic acid for 24 h. The p-tauSer396 level of the SH-SY5Y cells was measured by the Western Blot assay.
# PC12 cells [4] = experiment: Survival rate of PC12 cells in the okadaic acid-induced injury model (CCK-8); format: cell-based
# Description: PC12 cells were detached and counted. A cell suspension was prepared at 8.0×10^4 cells/mL. 100 μL of the cell suspension was added to each well of a 96-well cell culture plate. The 96-well cell culture plate was placed in an incubator at 37° C. in 5% CO2 and cultured for 24 h. In an experimental group, the PC12 cells were pre-incubated for 2 h in a culture medium containing a test compound (the concentrations of the compound were 0.1 μmol/L, 0.5 μmol/L, 1 μmol/L, 5 μmol/L, and 10 μmol/L respectively, and the concentrations of the compound were set according to the concentrations in Table 5, Table 6, Table 7, and Table 8). […] In addition, a negative control group (no test compound or okadaic acid added) and a model group (only okadaic acid added) were set. The 96-well cell culture plate was placed in an incubator at 37° C. in 5% CO2 and cultured for 24 h. The cells in the 96-well cell culture plate were stained with 10 μL of CCK-8 in each well, and then cultured in the incubator for 1 h to 2 h. The 96-well cell culture plate was shaken gently for 10 min to mix uniformly and remove bubbles from the 96-well cell culture plate. The OD value of each well at 2=450 nm was read by using a microplate reader. A survival rate of cells was calculated.
# Calculation formula for the cell survival rate: […]
# The effect of each compound on the survival rate of PC12 cells in the okadaic acid- and Aβ1-42-induced injury models was determined by the CCK-8 cell proliferation assay.
# PC12 cells [5] = experiment: Survival rate of PC12 cells in the Aβ1-42-induced injury model (CCK-8); format: cell-based; conditions: for OD value at 450 nm, Mean ± SD: 2 h, then Aβ1-42 40 μmol/L, 24 h, PC12 cells
# [6] = compound 0.1 μmol/L, PC12 cells
# [7] = compound 0.5 μmol/L, PC12 cells
smiles,measurement,setting,value
"COCc1cc2oc(=N)c3ccccc3n2n1 [Compound 2, 2-(methoxymethyl)-5H-benzo[d]pyrazolo[5,1-b][1,3]oxazin-5-imine]",PP2A (Western Blot signal),PP2A [1]; [6],1025.7
same,"PP2A protein expression level, β-actin(%)",PP2A [1]; [6],31.24%
same,PP2A (Western Blot signal),PP2A [1]; [7],1129.7
same,"PP2A protein expression level, β-actin(%)",PP2A [1]; [7],33.18%
same,PP2A (Western Blot signal),"PP2A [1]; compound 1 μmol/L, PC12 cells",1180.1
same,"PP2A protein expression level, β-actin(%)","PP2A [1]; compound 1 μmol/L, PC12 cells",33.51%
same,PP2A (Western Blot signal),"PP2A [1]; compound 5 μmol/L, PC12 cells",1284.7
same,"PP2A protein expression level, β-actin(%)","PP2A [1]; compound 5 μmol/L, PC12 cells",35.61%
same,PP2A (Western Blot signal),"PP2A [1]; compound 10 μmol/L, PC12 cells",2192.1
same,"PP2A protein expression level, β-actin(%)","PP2A [1]; compound 10 μmol/L, PC12 cells (normal cells 58.95%)",58.59%
same,effect on PP2A protein expression level,"PP2A [1]; compound 10 μmol/L, PC12 cells",can significantly increase the PP2A protein expression level
same,effect on PP2A protein expression level,"PP2A [1]; compound 0.1, 0.5, 1 and 5 μmol/L, PC12 cells","can increase the PP2A protein expression level in PC12 cells that is reduced due to Aβ, in a specific dose-effect relationship"
same,PP2A (Western Blot signal),PP2A [2]; compound 1 μmol/L,557.1
same,PP2A(%),PP2A [2]; compound 1 μmol/L,14%
same,PP2A (Western Blot signal),PP2A [2]; compound 5 μmol/L,688.01
same,PP2A(%),PP2A [2]; compound 5 μmol/L,18%
same,PP2A (Western Blot signal),PP2A [2]; compound 10 μmol/L,1130.4
same,PP2A(%),PP2A [2]; compound 10 μmol/L,29%
same,effect on the PP2A expression level,"PP2A [2]; compound 1, 5 and 10 μmol/L, compared with okadaic acid only",can significantly increase the PP2A expression level dose-dependently
same,okadaic acid-induced phosphorylation of tau protein,[3]; compared with okadaic acid only,can significantly inhibit okadaic acid-induced phosphorylation of tau protein in cells
same,p-tauSer396 level (%),"[3]; compound 0.1 μmol/L, n = 3",0.761 ± 0.008%
same,p-tauSer396 level (%),"[3]; compound 0.3 μmol/L, n = 3",0.663 ± 0.027%
same,change of p-tauSer396 level,[3]; compound 1.0 μmol/L and 3.0 μmol/L,decreases significantly (P<0.05)
same,p-tauSer396 level (%),"[3]; compound 1.0 μmol/L, n = 3, P<0.05 vs negative control",0.557 ± 0.013 %
same,p-tauSer396 level (%),"[3]; compound 3.0 μmol/L, n = 3, P<0.05 vs negative control",0.578 ± 0.025 %
same,change of p-tauSer396 level,[3]; compound 10 μmol/L,decreases significantly (P<0.01)
same,p-tauSer396 level (%),"[3]; compound 10 μmol/L, n = 3, P<0.01 vs negative control",0.522 ± 0.016 %
same,viability at 0.1 µM,"PC12 cells [4]; Rattus norvegicus, PC-12, 24 h, compound 0.1 μmol/L, 2 h, then okadaic acid 50 nmol/L, 24 h, PC12 cells",49.2%
same,viability at 0.5 µM,"PC12 cells [4]; Rattus norvegicus, PC-12, 24 h, compound 0.5 μmol/L, 2 h, then okadaic acid 50 nmol/L, 24 h, PC12 cells",51%
same,viability at 1 µM,"PC12 cells [4]; Rattus norvegicus, PC-12, 24 h, compound 1 μmol/L, 2 h, then okadaic acid 50 nmol/L, 24 h, PC12 cells",59.4%
same,viability at 5 µM,"PC12 cells [4]; Rattus norvegicus, PC-12, 24 h, compound 5 μmol/L, 2 h, then okadaic acid 50 nmol/L, 24 h, PC12 cells",70.8%
same,viability at 10 µM,"PC12 cells [4]; Rattus norvegicus, PC-12, 24 h, compound 10 μmol/L, 2 h, then okadaic acid 50 nmol/L, 24 h, PC12 cells",78.4%
same,"OD value at 450 nm, Mean ± SD","PC12 cells [4]; compound 0.1 μmol/L, 2 h, then okadaic acid 50 nmol/L, 24 h, PC12 cells",0.652 ± 0.018
same,"OD value at 450 nm, Mean ± SD","PC12 cells [4]; compound 0.5 μmol/L, 2 h, then okadaic acid 50 nmol/L, 24 h, PC12 cells",0.676 ± 0.016
same,"OD value at 450 nm, Mean ± SD","PC12 cells [4]; compound 1 μmol/L, 2 h, then okadaic acid 50 nmol/L, 24 h, PC12 cells",0.787 ± 0.028
same,"OD value at 450 nm, Mean ± SD","PC12 cells [4]; compound 5 μmol/L, 2 h, then okadaic acid 50 nmol/L, 24 h, PC12 cells",0.92 ± 0.008 and 0.967 ± 0.018
same,Survival rate %,"PC12 cells [4]; compound 5 μmol/L, 2 h, then okadaic acid 50 nmol/L, 24 h, PC12 cells, 1440 min, 5 µM",72.93%
same,"OD value at 450 nm, Mean ± SD","PC12 cells [4]; compound 10 μmol/L, 2 h, then okadaic acid 50 nmol/L, 24 h, PC12 cells",1.04 ± 0.017
same,survival rate compared with okadaic acid model group,PC12 cells [4]; compound 0.1 and 0.5 μmol/L,no statistical difference (P>0.05)
same,survival rate compared with okadaic acid model group,"PC12 cells [4]; compound 1, 5 and 10 μmol/L",significant statistical differences (P<0.01)
same,viability at 0.1 µM,"PC12 cells [5]; Rattus norvegicus, PC-12, 24 h",50.7%
same,viability at 0.5 µM,"PC12 cells [5]; Rattus norvegicus, PC-12, 24 h",50.6%
same,viability at 1 µM,"PC12 cells [5]; Rattus norvegicus, PC-12, 24 h",55.7%
same,viability at 5 µM,"PC12 cells [5]; Rattus norvegicus, PC-12, 24 h",68.3%
same,viability at 10 µM,"PC12 cells [5]; Rattus norvegicus, PC-12, 24 h",79.1%
same,"OD value at 450 nm, Mean ± SD",PC12 cells [5]; compound 0.1 μmol/L,0.699 ± 0.027
same,"OD value at 450 nm, Mean ± SD",PC12 cells [5]; compound 0.5 μmol/L,0.698 ± 0.024
same,"OD value at 450 nm, Mean ± SD",PC12 cells [5]; compound 1 μmol/L,0.768 ± 0.015
same,"OD value at 450 nm, Mean ± SD",PC12 cells [5]; compound 5 μmol/L,0.941 ± 0.018
same,"OD value at 450 nm, Mean ± SD",PC12 cells [5]; compound 10 μmol/L,1.09 ± 0.026
same,survival rate compared with Aβ1-42 model group,PC12 cells [5]; compound 0.1 and 0.5 μmol/L,no statistical difference (P>0.05)
same,survival rate compared with Aβ1-42 model group,"PC12 cells [5]; compound 1, 5 and 10 μmol/L",statistical differences (P<0.01)
